Patent US20240002326A1, “COMPOUNDS AND USE THEREOF IN METHODS OF TREATMENT” (The University of Queensland, priority 2016, published 2024)

How the values were obtained:
[1] = Cytotoxicity assay (Alamar blue), HEK293; assay type: cell-based; settings: human, HEK293 cells; HEK293, 24 h
In short: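 COS-7 cells in DMEM with 10% FBS; HepG2 and HEK293 in DMEM with 1% FBS. After 24 h plating, serial compound dilutions (0.5% DMSO final) added for 24 h at 37° C. Viability from Alamar blue 5 μM, fluorescence 560/590 nm read after 2 h.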

[2] = Cytotoxicity assay (Alamar blue), HepG2; assay type: cell-based; settings: human, HepG2 cells; HepG2, 24 h
[3] = target: full-length mouse SOX18 (Mus musculus (Mouse), UniProt P43680); test: FP DNA-binding competition assay, full-length SOX18; settings: full-length mouse SOX18, Prox1-DNA probe, read-out: FP IC50 ± SD
Method: Full-length mouse SOX18. A N-terminally tagged mouse HIS-GST-SOX18 was recombinantly expressed in Sf9 cells, purified on GST resin (GE Healthcare Life Sciences, Sweden) and eluted in Tris buffer (50 mM Tris, 500 mM NaCl, 10 mM reduced glutathione, pH 8.0). cDNA clone of mouse Sox18 was PCR amplified and cloned into the pOPIN-GST vector, to generate N-terminally tagged HIS-GST-SOX18. A sequence verified construct was co-transfected with flashBACULTRA (Oxford Expression Technologies, Oxford, United Kingdom) baculovirus DNA onto Spodoptera frugiperda Sf9 cells to obtain recombinantly expressed HIS-GST-SOX18. High Five cells (BTI-TN-5B1-4) in Sf-900™ II serum-free medium were infected at cell density of 1.5×10^6 cells/mL with a multiplicity of infection (MOI) of 5 PFU/cell, and incubated at 21° C. for 144 h before harvest. The cell pellet from 100 mL of expression culture was resuspended in 30 mL of phosphate lysis buffer (50 mM sodium phosphate, 500 mM sodium chloride, 1% Triton X-100, 2 mM magnesium chloride, one tablet of cOmplete Protease Inhibitor Cocktail, pH 7.5) and sonicated on ice for 20 s. The cell lysate was centrifuged at 17,000×g for 40 min at 4° C. Supernatant was incubated with Benzonase Nuclease (Merck Millipore) for 1 h at room temperature for DNA degradation, before being mixed with 500 μL GST resin (GE Healthcare Life Sciences, Sweden) and incubated on a rotating wheel at room temperature for 1 h. The sample was centrifuged at 500×g for 1 min to remove unbound protein in the supernatant. The resin was further washed with 50 resin volumes (RV) wash buffer (50 mM sodium phosphate, 500 mM NaCl, pH 7.5), with unbound protein removed by centrifugation as above. Bound protein was eluted from the resin with 3×1 RV elution buffer (50 mM Tris, 500 mM NaCl, 10 mM reduced glutathione, pH 8.0), collecting the supernatant by centrifugation as above.
The DNA-binding competition assay was performed in black 384-well plates, with mouse full length SOX18, or SOX-HMG fragments. All experiments were performed using a fluorescently-labelled Prox1-DNA element. Controls consisted of free labelled DNA (low FP milli-Polarization index, mP), labelled DNA in presence of protein (negative control, high mP), and labelled DNA and protein in presence of competing excess of unlabelled DNA (positive control, low mP)
The DNA-binding competition assay was performed in 25 uL, in black 384-well plates, using either 30 mM HEPES (N-2-Hydroxyethylpiperazine-N′-2-Ethanesulfonic Acid) (pH 7.5, with 100 mM KCl, 40 mM NaCl, 10 mM NH4OAc, […], 2 mM MgCl2, 0.5 mM EDTA, 0.01% NP-40) for mouse full length SOX18, or Tris-NaCl (10 mM Tris pH 8.0 and 100 mM NaCl) for SOX-HMG fragments. All experiments were performed using a 40 bp double-stranded Prox1-DNA element with 5′ fluorescein amidite (FAM) label (Sigma Proligo or InVitrogen). Optimum binding levels were obtained at 200 nM of mouse full length SOX18 and 60 nM of SOX-HMG fragment, in presence of 5 nM labelled DNA. Controls consisted of free labelled DNA (low FP milli-Polarization index, mP), labelled DNA in presence of protein (negative control, high mP), and labelled DNA and protein in presence of 400 time competing excess of unlabelled DNA (positive control, low mP). Depending on compound, final DMSO concentrations ranged from 2 to 3.33% v/v. After mixing protein, DNA probe and compound, plates were sealed and briskly agitated in the dark for 5 minutes at room temperature, 10 minutes at 37° C., and 30 minutes at room temperature, before reading fluorescence polarization on a Tecan M1000Pro (λexc=485 nm, λem=525 nm). All experiments were performed in triplicates.

[4] = target: SOX18 (Mus musculus (Mouse), UniProt P43680); test: Cell-based luciferase SOX18-dependent transactivation (Vcam1 promoter) in COS-7; settings: COS7, 24 h
Method: Monkey kidney fibroblast-like cells (COS-7) were cultured at 37° C., 5% CO2 in DMEM (Life technologies, 11995) with FBS, sodium pyruvate, L-glutamine, penicillin, streptomycin, non-essential amino acids and HEPES. Cells were grown in 96-well plates to 80% confluency, and transfected with mouse plasmids pGL2 Vcam 1 promoter construct (VC1889) and pSG5 Sox18, using X-tremeGENE 9 DNA transfection reagent (Roche, 06365787001) (Hosking et al., 2004, Duong et al., 2014). After 4-6 h transfection, cells were incubated with compounds in 0.5% FBS medium for another 24 h, before lysis and luciferase assay (Perkin Elmer, 6016711).

[5] = tested on: COS-7 cells; test: Cytotoxicity assay (Alamar blue), COS-7; assay type: cell-based, Monkey; settings: COS7, 24 h; read-out: In vitro cytotoxicity CC50 ± SD COS7
Method: (§1) Cell toxicity was determined using Alamar blue, as previously described (McMillian et al., 2002). COS-7 cells were seeded as 7000 cells per well in black wall clear bottom 96-well plates in DMEM medium (Life Technologies Australia) with 10% FBS. HepG2 and HEK293 cell lines, from ATCC, were seeded as 5000 cells per well in black wall clear bottom 384-well cell culture plates in DMEM with 1% FBS. Cells were cultured for 24 h at 37° C., 5% CO2. A serial dilution of compounds was added, with a final DMSO concentration adjusted to 0.5% v/v. Cells were incubated for another 24 h. 1 Triton X-100 was used as negative control, and 0.5% DMSO as positive control. 5 μM Alamar blue was added to each well and fluorescence was measured (λexc=560 nm, λem=590 nm) after 2 h incubation at 37° C. Data were analysed using Prism software.

[6] = Cytotoxicity assay (Alamar blue), COS-7; assay type: cell-based, Monkey; settings: chlorocebus aethiops, COS-7 cells; COS7, 24 h; read-out: In vitro cytotoxicity CC50 ± SD COS7
Method: as §1

SOX18, sequence (P43680 whole entry): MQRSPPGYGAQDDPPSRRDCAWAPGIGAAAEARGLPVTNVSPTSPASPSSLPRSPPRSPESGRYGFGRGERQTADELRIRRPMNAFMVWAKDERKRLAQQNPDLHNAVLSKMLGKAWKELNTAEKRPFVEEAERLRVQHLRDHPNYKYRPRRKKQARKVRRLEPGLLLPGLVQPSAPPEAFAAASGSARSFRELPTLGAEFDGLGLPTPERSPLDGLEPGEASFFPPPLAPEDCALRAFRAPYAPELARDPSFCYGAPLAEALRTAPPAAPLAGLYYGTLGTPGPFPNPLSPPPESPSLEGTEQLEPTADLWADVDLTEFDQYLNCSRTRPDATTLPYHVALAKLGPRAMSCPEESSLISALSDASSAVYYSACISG
full-length mouse SOX18, sequence (P43680 whole entry): as above

IC50 ([4]; read-out: In vitro efficacy in cell IC50 ± SD COS7 (Luc)) [µM] | SMILES | CC50 at 24 h [1] [µM] | CC50 at 24 h [2] [µM] | IC50 [3] [µM] | CC50 [5] [µM] | In vitro efficacy in cell IC50 ± SD COS7 (Luc) [4] | CC50 at 24 h [6] [µM]
 | Oc1cc(CCc2ccccc2)cc(O)c1O [Sm40, 5-phenethylbenzene-1,2,3-triol] | > 100 | > 100 |  |  |  | 
21 ± 14 | O=C(O)c1c(O)cccc1COCCc1ccccc1 [Sm5] |  |  | 1100 | > 200 |  | 
 | O=C(O)c1ccccc1Nc1cccc(C(F)(F)F)c1 [Flufenamic acid, reference compound] |  |  | 220 ± 68.6 |  | cytotoxicity was reached before any concentration-dependent SOX18 inhibition could be observed | 65 ± 2.7
 | COc1cc(C)cc(/C=C/c2ccc3ccccc3c2)c1C(=O)O [Sm34, (E)-2-methoxy-4-methyl-6-(2-(naphthalen-2-yl)vinyl)benzoic acid] | > 100 | > 100 |  |  |  | 
